This assay concerns the target T1, human recombinant P2X7 receptors (Homo sapiens, UniProt Q99572).
T1 construct: expressed in transfected cells
T1 sequence (Q99572 1-595): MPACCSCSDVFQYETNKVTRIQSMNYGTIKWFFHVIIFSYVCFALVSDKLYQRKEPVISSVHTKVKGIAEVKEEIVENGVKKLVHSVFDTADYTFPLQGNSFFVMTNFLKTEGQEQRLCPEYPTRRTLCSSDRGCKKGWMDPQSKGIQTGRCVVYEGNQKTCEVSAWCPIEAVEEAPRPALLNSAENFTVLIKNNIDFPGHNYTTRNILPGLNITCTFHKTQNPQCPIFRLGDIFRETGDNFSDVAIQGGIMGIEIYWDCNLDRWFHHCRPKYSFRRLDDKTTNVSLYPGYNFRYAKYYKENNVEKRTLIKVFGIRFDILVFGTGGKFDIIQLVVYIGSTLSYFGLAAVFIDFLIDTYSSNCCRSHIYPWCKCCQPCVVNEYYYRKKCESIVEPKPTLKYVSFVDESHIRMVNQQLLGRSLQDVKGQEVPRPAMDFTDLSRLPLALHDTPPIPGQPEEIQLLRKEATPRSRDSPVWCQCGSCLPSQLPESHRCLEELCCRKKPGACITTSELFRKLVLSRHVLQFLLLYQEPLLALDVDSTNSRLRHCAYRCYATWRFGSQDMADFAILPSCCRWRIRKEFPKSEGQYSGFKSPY
As to the kind of experiment: Ethidium Accumulation Assay 2 (HEK293 cells, ATP-induced ethidium uptake). The class given is cell-based. The settings on record: HEK293 cells expressing human P2X7; sometimes mean of more than one measurement; read-out: Assay 2 (antagonist pIC50 for blocking ATP responses) (converted). The procedure: Eithidium Accumulation Assay 2
Human Embryonic Kidney (HEK) 293 cells, stably expressing human recombinant P2X7 receptors, were grown in poly-D-lysine pretreated 96 well plates for 24 hours at 37° C.
The cells were washed with assay buffer (100 μL), before addition of 25 μL of assay buffer and then 25 ul of assay buffer containing the putative P2X7 receptor antagonist compound. The cells were then incubated at room temperature (19-21° C.) for 30 min before addition of ATP solution (50 μM). […] Antagonist pIC50 values for blocking ATP responses were determined using iterative curve fitting techniques.

Each structure is given as a SMILES string.

Take `Cc1c(C(=O)N2CCn3c(nnc3-c3ccc(F)cn3)C2)ccc(F)c1F` [Example 155, 7-[(3,4-difluoro-2-methylphenyl)carbonyl]-3-(5-fluoro-2-pyridinyl)-5,6,7,8-tetrahydro[1,2,4]triazolo[4,3-a]pyrazine]: the IC50 is less than 100 nM.

For the molecule `O=C(c1ccc(Cl)cc1Cl)N1CCn2c(nnc2-c2ncns2)C1` [Example 205, 7-[(2,4-dichlorophenyl)carbonyl]-3-(1,2,4-thiadiazol-5-yl)-5,6,7,8-tetrahydro[1,2,4]triazolo[4,3-a]pyrazine], the IC50 is less than 100 nM.

For the molecule `Cc1c(C(=O)N2CCn3c(nnc3-c3cnccn3)C2)ccc(F)c1F` [Example 151, 7-[(3,4-difluoro-2-methylphenyl)carbonyl]-3-(2-pyrazinyl)-5,6,7,8-tetrahydro[1,2,4]triazolo[4,3-a]pyrazine], the IC50 was less than 10 nM.

For `Cc1scnc1-c1nnc2n1CCN(C(=O)c1ccc(Cl)c(F)c1Cl)C2` [Example 197, 7-[(2,4-Dichloro-3-fluorophenyl)carbonyl]-3-(5-methyl-1,3-thiazol-4-yl)-5,6,7,8-tetrahydro[1,2,4]triazolo[4,3-a]pyrazine], the IC50 was less than 10 nM.

On to `[2H]c1ccc(-c2nnc3n2CCN(C(=O)c2ccc(Cl)c(F)c2Cl)C3)nc1` [Example 183, 7-[(2,4-Dichloro-3-fluorophenyl)carbonyl]-3-(2-pyridinyl)-5,6,7,8-tetrahydro[1,2,4]triazolo[4,3-a]pyrazine-d1], for which the IC50 was less than 10 nM.

As for `Cc1c(Cl)ccc(C(=O)N2CCn3c(nnc3-c3cnccn3)C2)c1Cl` [Example 154, 7-[(2,4-dichloro-3-methylphenyl)carbonyl]-3-(2-pyrazinyl)-5,6,7,8-tetrahydro[1,2,4]triazolo[4,3-a]pyrazine], the IC50 was less than 10 nM.

As to `Cc1c(Cl)cccc1C(=O)N1CCn2c(nnc2-c2nccs2)C1` [Example 200, 7-[(3-Chloro-2-methylphenyl)carbonyl]-3-(1,3-thiazol-2-yl)-5,6,7,8-tetrahydro[1,2,4]triazolo[4,3-a]pyrazine], the IC50 was less than 100 nM.

As for `O=C(c1ccc(Cl)c(F)c1Cl)N1CCn2c(nnc2-c2ccccn2)C1` [Example 173, 7-[(2,4-dichloro-3-fluorophenyl)carbonyl]-3-(2-pyridinyl)-5,6,7,8-tetrahydro[1,2,4]triazolo[4,3-a]pyrazine], the IC50 is less than 10 nM.

Regarding `Cc1csc(-c2nnc3n2CCN(C(=O)c2ccc(Cl)c(F)c2Cl)C3)n1` [Example 191, 7-[(2,4-Dichloro-3-fluorophenyl)carbonyl]-3-(4-methyl-1,3-thiazol-2-yl)-5,6,7,8-tetrahydro[1,2,4]triazolo[4,3-a]pyrazine], the IC50 was less than 100 nM.

Take `Cc1c(F)ccc(C(=O)N2CCn3c(nnc3-c3cnccn3)C2)c1Cl` [Example 153, 7-[(2-chloro-4-fluoro-3-methylphenyl)carbonyl]-3-(2-pyrazinyl)-5,6,7,8-tetrahydro[1,2,4]triazolo[4,3-a]pyrazine]: the IC50 was less than 10 nM.

For `O=C(c1ccc(F)c(Cl)c1Cl)N1CCn2c(nnc2-c2cccnn2)C1` [Example 168, 7-[(2,3-Dichloro-4-fluorophenyl)carbonyl]-3-(3-pyridazinyl)-5,6,7,8-tetrahydro[1,2,4]triazolo[4,3-a]pyrazine], the IC50 is less than 100 nM.

As to `O=C(c1ccc(Cl)cc1Cl)N1CCn2c(nnc2-c2ccns2)C1` [Example 158, 7-[(2,4-dichlorophenyl)carbonyl]-3-(5-isothiazolyl)-5,6,7,8-tetrahydro[1,2,4]triazolo[4,3-a]pyrazine], the IC50 is less than 100 nM.

For the molecule `O=C(c1ccc(Cl)c(F)c1Cl)N1CCn2c(nnc2-c2cncs2)C1` [Example 185, 7-[(2,4-Dichloro-3-fluorophenyl)carbonyl]-3-(1,3-thiazol-5-yl)-5,6,7,8-tetrahydro[1,2,4]triazolo[4,3-a]pyrazine], the IC50 is less than 100 nM.

The record behind these values is patent US8501946B2 (Glaxo Group Limited, priority 2009, dated 2013).
